Assay results taken from the supplement of paper PMC10307832.

Columns and labels:
Experiment in all cases: relative viability (nuclei count vs DMSO), 5 days (fraction); higher = more cells survive
ABC-1 = tested on: ABC-1
Procedure, shortened: (§1)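 The day after seeding in 1536-well plates, lung cancer cell lines were treated by pin tool with a single drug, or with a fixed anchor-drug dose together with five library-drug doses (not always all listed) in √10 steps. After 5 days, a combined fix-and-stain solution (final 0.05% Triton X-100, 1% formaldehyde, 1 ug/ml Hoechst) was added. Nuclei counted on 4× images gave relative viability as treated counts over vehicle counts, reported as the median of duplicate plates.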

COR-L23 = tested on: COR-L23
Procedure, shortened: as §1

EPLC-272H = tested on: EPLC-272H
Procedure, shortened: as §1

HARA = tested on: HARA
Procedure, shortened: as §1

HCC-15 = tested on: HCC-15
Procedure, shortened: as §1

HCC-44 = tested on: HCC-44
Procedure, shortened: as §1

HOP-62 = tested on: HOP-62
Procedure, shortened: as §1

LC-2-ad = tested on: LC-2-ad
Procedure, shortened: as §1

LU99A = tested on: LU99A
Procedure, shortened: as §1

NCI-H1355 = tested on: NCI-H1355
Procedure, shortened: as §1

NCI-H1651 = tested on: NCI-H1651
Procedure, shortened: as §1

NCI-H1915 = tested on: NCI-H1915
Procedure, shortened: as §1

NCI-H1993 = tested on: NCI-H1993
Procedure, shortened: as §1

NCI-H2023 = tested on: NCI-H2023
Procedure, shortened: as §1

NCI-H2085 = tested on: NCI-H2085
Procedure, shortened: as §1

NCI-H2126 = tested on: NCI-H2126
Procedure, shortened: as §1

NCI-H2347 = tested on: NCI-H2347
Procedure, shortened: as §1

NCI-H650 = tested on: NCI-H650
Procedure, shortened: as §1

NCI-H838 = tested on: NCI-H838
Procedure, shortened: as §1

PC-14 = tested on: PC-14
Procedure, shortened: as §1

SW 1573 = tested on: SW 1573
Procedure, shortened: as §1

UMC-11 = tested on: UMC-11
Procedure, shortened: as §1

`Cc1sc2c(c1C)C(c1ccc(Cl)cc1)=N[C@@H](CC(=O)OC(C)(C)C)c1nnc(C)n1-2` [JQ1] + CCNC(=O)c1noc(-c2cc(C(C)C)c(O)cc2O)c1-c1ccc(CN2CCOCC2)cc1 [Luminespib] (partner 0.01 µM) was tested, and the relative viability (ABC-1; first compound 0.04 µM) was 0.612, the relative viability (ABC-1; first compound 0.1265 µM) was 0.286 and the relative viability (ABC-1; first compound 0.4 µM) was 0.479. The relative viability (ABC-1; first compound 1.265 µM) was 0.192, the relative viability (ABC-1; first compound 4 µM) was 0.267 and the relative viability (COR-L23; first compound 0.04 µM) was 0.649. The relative viability (COR-L23; first compound 0.1265 µM) was 0.6, the relative viability (COR-L23; first compound 0.4 µM) was 0.504 and the relative viability (COR-L23; first compound 1.265 µM) was 0.207. For the same compound, the relative viability (COR-L23; first compound 4 µM) was 0.114, the relative viability (EPLC-272H; first compound 0.04 µM) was 0.451 and the relative viability (EPLC-272H; first compound 0.1265 µM) was 0.332. It also gave a relative viability (EPLC-272H; first compound 0.4 µM) of 0.238, a relative viability (EPLC-272H; first compound 1.265 µM) of 0.179 and a relative viability (EPLC-272H; first compound 4 µM) of 0.189. For the same compound, the relative viability (HARA; first compound 0.04 µM) was 0.65, the relative viability (HARA; first compound 0.1265 µM) was 0.508 and the relative viability (HARA; first compound 0.4 µM) was 0.374. It also gave a relative viability (HARA; first compound 1.265 µM) of 0.168, a relative viability (HARA; first compound 4 µM) of 0.153 and a relative viability (HCC-15; first compound 0.04 µM) of 0.348. It also gave a relative viability (HCC-15; first compound 0.4 µM) of 0.45, a relative viability (HCC-15; first compound 1.265 µM) of 0.298 and a relative viability (HCC-15; first compound 4 µM) of 0.216. It also gave a relative viability (HCC-44; first compound 0.04 µM) of 0.968, a relative viability (HCC-44; first compound 0.1265 µM) of 0.433 and a relative viability (HCC-44; first compound 0.4 µM) of 0.551. It also gave a relative viability (HCC-44; first compound 1.265 µM) of 0.388, a relative viability (HCC-44; first compound 4 µM) of 0.153 and a relative viability (HOP-62; first compound 0.04 µM) of 0.867. For the same compound, the relative viability (HOP-62; first compound 0.1265 µM) was 0.824, the relative viability (HOP-62; first compound 0.4 µM) was 0.477 and the relative viability (HOP-62; first compound 1.265 µM) was 0.309. The relative viability (HOP-62; first compound 4 µM) was 0.128, the relative viability (LC-2-ad; first compound 0.04 µM) was 0.892 and the relative viability (LC-2-ad; first compound 0.1265 µM) was 0.58. For the same compound, the relative viability (LC-2-ad; first compound 0.4 µM) was 0.576, the relative viability (LC-2-ad; first compound 1.265 µM) was 0.395 and the relative viability (LC-2-ad; first compound 4 µM) was 0.331. It also gave a relative viability (LU99A; first compound 0.04 µM) of 0.285, a relative viability (LU99A; first compound 0.1265 µM) of 0.246 and a relative viability (LU99A; first compound 0.4 µM) of 0.266. It also gave a relative viability (LU99A; first compound 1.265 µM) of 0.173, a relative viability (LU99A; first compound 4 µM) of 0.179 and a relative viability (NCI-H1355; first compound 0.04 µM) of 0.715. It also gave a relative viability (NCI-H1355; first compound 0.1265 µM) of 0.715, a relative viability (NCI-H1355; first compound 0.4 µM) of 0.453 and a relative viability (NCI-H1355; first compound 1.265 µM) of 0.359. The relative viability (NCI-H1355; first compound 4 µM) was 0.339, the relative viability (NCI-H1651; first compound 0.04 µM) was 0.865 and the relative viability (NCI-H1651; first compound 0.1265 µM) was 0.997. It also gave a relative viability (NCI-H1651; first compound 0.4 µM) of 0.768, a relative viability (NCI-H1651; first compound 1.265 µM) of 0.369 and a relative viability (NCI-H1651; first compound 4 µM) of 0.375. It also gave a relative viability (NCI-H1915; first compound 0.04 µM) of 0.56, a relative viability (NCI-H1915; first compound 0.1265 µM) of 0.668 and a relative viability (NCI-H1915; first compound 0.4 µM) of 0.364. The relative viability (NCI-H1915; first compound 1.265 µM) was 0.32, the relative viability (NCI-H1915; first compound 4 µM) was 0.186 and the relative viability (NCI-H1993; first compound 0.04 µM) was 1.03. The relative viability (NCI-H1993; first compound 0.1265 µM) was 0.789, the relative viability (NCI-H1993; first compound 0.4 µM) was 0.821 and the relative viability (NCI-H1993; first compound 1.265 µM) was 0.637. It also gave a relative viability (NCI-H1993; first compound 4 µM) of 0.889, a relative viability (NCI-H2023; first compound 0.04 µM) of 0.731 and a relative viability (NCI-H2023; first compound 0.1265 µM) of 0.67. For the same compound, the relative viability (NCI-H2023; first compound 0.4 µM) was 0.358, the relative viability (NCI-H2023; first compound 1.265 µM) was 0.107 and the relative viability (NCI-H2023; first compound 4 µM) was 0.146. It also gave a relative viability (NCI-H2085; first compound 0.04 µM) of 0.387, a relative viability (NCI-H2085; first compound 0.1265 µM) of 0.434 and a relative viability (NCI-H2085; first compound 0.4 µM) of 0.386. The relative viability (NCI-H2085; first compound 1.265 µM) was 0.248, the relative viability (NCI-H2085; first compound 4 µM) was 0.182 and the relative viability (NCI-H2126; first compound 0.04 µM) was 0.968. The relative viability (NCI-H2126; first compound 0.1265 µM) was 0.767, the relative viability (NCI-H2126; first compound 0.4 µM) was 0.977 and the relative viability (NCI-H2126; first compound 1.265 µM) was 0.864. For the same compound, the relative viability (NCI-H2126; first compound 4 µM) was 0.659, the relative viability (NCI-H2347; first compound 0.04 µM) was 0.45 and the relative viability (NCI-H2347; first compound 0.1265 µM) was 0.675. It also gave a relative viability (NCI-H2347; first compound 0.4 µM) of 0.3, a relative viability (NCI-H2347; first compound 1.265 µM) of 0.316 and a relative viability (NCI-H2347; first compound 4 µM) of 0.32. It also gave a relative viability (NCI-H650; first compound 0.04 µM) of 0.743, a relative viability (NCI-H650; first compound 0.1265 µM) of 0.7 and a relative viability (NCI-H650; first compound 0.4 µM) of 0.546. For the same compound, the relative viability (NCI-H650; first compound 1.265 µM) was 0.203, the relative viability (NCI-H650; first compound 4 µM) was 0.212 and the relative viability (NCI-H838; first compound 0.04 µM) was 0.289. For the same compound, the relative viability (NCI-H838; first compound 0.1265 µM) was 0.288, the relative viability (NCI-H838; first compound 0.4 µM) was 0.222 and the relative viability (NCI-H838; first compound 1.265 µM) was 0.161. The relative viability (NCI-H838; first compound 4 µM) was 0.144, the relative viability (PC-14; first compound 0.04 µM) was 0.146 and the relative viability (PC-14; first compound 0.1265 µM) was 0.146. It also gave a relative viability (PC-14; first compound 0.4 µM) of 0.0705, a relative viability (PC-14; first compound 1.265 µM) of 0.0929 and a relative viability (PC-14; first compound 4 µM) of 0.0646. For the same compound, the relative viability (SW 1573; first compound 0.04 µM) was 0.249, the relative viability (SW 1573; first compound 0.1265 µM) was 0.182 and the relative viability (SW 1573; first compound 0.4 µM) was 0.195. The relative viability (SW 1573; first compound 1.265 µM) was 0.0871, the relative viability (SW 1573; first compound 4 µM) was 0.0908 and the relative viability (UMC-11; first compound 0.04 µM) was 0.865. For the same compound, the relative viability (UMC-11; first compound 0.1265 µM) was 0.83, the relative viability (UMC-11; first compound 0.4 µM) was 0.336 and the relative viability (UMC-11; first compound 1.265 µM) was 0.278. The relative viability (UMC-11; first compound 4 µM) was 0.219.
